The source made the active and inactive calls. How the calls were made is not given here.

The target in this test is Ribonuclease H1 (Homo sapiens) (UniProt O60930). The test is described as follows: human RNase H1 inhibitors, dose response, biochemical, FRET RNA/DNA duplex cleavage (AID 366).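 Further: potency is for inhibitors that lower RNA cleavage and so lower fluorescence.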 The settings on record: fluorescence.
Sequence of Ribonuclease H1 (Homo sapiens) (O60930 whole entry, looked up): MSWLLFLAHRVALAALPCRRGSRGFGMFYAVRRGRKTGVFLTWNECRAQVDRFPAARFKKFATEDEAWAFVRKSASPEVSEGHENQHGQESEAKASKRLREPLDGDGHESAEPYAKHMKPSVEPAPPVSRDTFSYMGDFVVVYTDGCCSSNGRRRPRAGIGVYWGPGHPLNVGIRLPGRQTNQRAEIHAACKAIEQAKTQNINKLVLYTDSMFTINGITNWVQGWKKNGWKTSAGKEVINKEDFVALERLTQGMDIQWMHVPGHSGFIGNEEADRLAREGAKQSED
`CCOc1ccc(N2C(=O)/C(=C/c3ccc(Br)o3)C(=O)NC2=S)cc1`: the IC50 – broadly, the concentration that gives 50% inhibition – was 0.7 µM.
In the case of `COc1cc([C@@H]2c3cc4c(cc3C[C@H]3COC(=O)[C@@H]32)OCO4)cc(OC)c1O`, the half-maximal inhibitory concentration (IC50) was 1.8 µM.
Next, `C=C1C(=O)O[C@@H]2/C=C(\C)CC/C=C(\C(=O)O)CC/C=C(\C)CC[C@H]12`: 3.1 µM; `Cc1ccc(C(=O)Nc2sc(C)c(C)c2C(N)=O)cc1`: 0.8 µM.
In the case of `O=C1/C(=C\c2ccc(O)c(O)c2)SC(=S)N1c1cccc(Cl)c1` it was 1.6 µM; in that of `COc1ccc(/C=C\C(=O)c2c(-c3ccccc3)c3cc(C)ccc3[nH]c2=O)c(OC)c1`, 8.4 µM.
In the case of `Cc1sc(NC(=O)c2cccc([N+](=O)[O-])c2)c(C(N)=O)c1C` it was 0.7 µM; in that of `Cc1ccc(S(=O)(=O)N=C2C=CC(=O)C=C2)c(C)c1`, 3.1 µM; in that of `CCOc1ccc(C(=O)Nc2ccc3c(c2)C(=O)c2ccccc2C3=O)cc1`, 1.1 µM.
In the case of `CCc1c(O)c2c(c(O)c1C(C)=O)C(=O)c1c(cc(O)c(C(=O)O)c1C(=O)O)C2=O`, the IC50 was 3.6 µM.
Next, `Nc1ccc(N=Nc2ccc(-c3ccc(O)cc3)cc2)c2ccc(S(=O)(=O)O)cc12`: 4.8 µM; `CC1C2C=CC1C(c1c3ccc(=O)c(O)c-3oc3c(O)c(O)ccc13)C2C(=O)O` (stereo not given): 0.07 µM; `O=C1/C(=C/c2ccc(O)c(O)c2)SC(=S)N1c1ccc(O)cc1`: 3.5 µM.
Next, `COc1ccc2oc(=O)c(-c3csc(Nc4ccc(Br)cc4)n3)cc2c1`: 0.9 µM; `Cc1ccc(C)n1-c1ccc(SCC(=O)O)cc1`: 1.2 µM; `COc1cc(C=O)ccc1OCCCOc1cccc(Oc2ccccc2)c1`: 6 µM.
In the case of `C=C/C(C)=C/C[C@]1(C)[C@H](C)CC[C@@]23C(=C[C@H](OC(=O)c4ccc(O)c(OC)c4)C[C@@H]12)[C@@H](OC(C)=O)O[C@H]3OC(C)=O` it was 4 µM; in that of `CCOc1ccc(N2C(=O)/C(=C/c3ccc(I)o3)C(=O)NC2=S)cc1`, 2 µM; in that of `O=C1c2ccccc2C(=O)c2c1cc(O)c(O)c2O`, 0.6 µM.
On to `C=C(C)[C@@H]1CCc2c(O)c(O)c(=O)cc(C)c2C1`, for which the concentration for half-maximal inhibition (IC50) was 3.8 µM.
Next, `O=C1C(Cl)=C/C(=N\S(=O)(=O)c2ccccc2)C(Cl)=C1Cl`: 4.1 µM.
In the case of `O=C(O)CCc1c2ccc(=O)c(O)c-2oc2c(O)c(O)ccc12` it was 0.07 µM; in that of `O=S(=O)(O)c1cc(N=[N+]([O-])c2cc(S(=O)(=O)O)c3ccccc3c2)cc2ccccc12`, 0.5 µM; in that of `Cc1cc(-c2ccc(C=C3C(=O)NC(=S)NC3=O)o2)c([N+](=O)[O-])cc1C`, 4 µM.
Next, `C[C@H]1[C@H](O)c2c(c3c(c4c(-c5ccccc5)cc(=O)oc24)OC(C)(C)C=C3)O[C@@H]1C`: 9 µM; `C=C(CCC(C(=O)O)C1CCC2(C)C3=C(CCC12C)C1(C)CCC(O)C(C)(C)C1CC3)C(C)C` (stereo not given): 4.8 µM; `CCCCCCCCCCCCCCCC(=O)OCC1OC(n2ccc(N)nc2=O)C(O)C1O` (stereo not given): 0.6 µM.
As to `CCOc1ccc(NC(=O)c2c(NC(=O)c3ccccc3)sc3c2CCCCC3)cc1`, the IC50 was 1.1 µM.
For `CCCCCCCCCCCCCCCCCCOCC(O)CO` (stereo not given), the IC50 is > 100 µM (inactive).
In the case of `O=C1c2cc([N+](=O)[O-])ccc2-c2ccc3c4ccc5c6c(ccc(c7ccc1c2c73)c64)C(=O)c1cc([N+](=O)[O-])ccc1-5` it was 0.4 µM.
Turning to `Cc1sc(NC(=O)c2ccc3c(c2)OCO3)c(C(N)=O)c1C`, the IC50 was 3.3 µM.
In the case of `Cc1cc(Cl)ccc1OCC(=O)Nc1sc(C)c(C)c1C(N)=O` it was 4.3 µM.
Next, `Cc1ccc(-c2cc(C(=O)Nc3sc(C(=O)OC(C)C)c(C)c3C(N)=O)c3ccccc3n2)s1`: 0.8 µM; `Cc1ccc(S(=O)(=O)/N=C2\C=C(Sc3ncn[nH]3)C(=O)c3ccccc32)cc1`: 9.2 µM; `NC(=O)c1c(N)sc2c1CCCCC2`: “inactive”.
In the case of `Cc1cc(O)c2c(c1O)C(=O)c1cccc(O)c1C2=O` it was “inactive”.
As to `O=C1/C(=C/c2ccc(O)c(O)c2)SC(=S)N1C1CCCCC1`, the IC50 is 1.8 µM.
Next, `COc1ccc(-c2nc3sc(-c4ccc(OC)cc4)nc3s2)cc1`: “inactive”.
For the molecule `Oc1cc(CN2COc3ccccc32)c(O)cc1CNC1CCCCC1`, the IC50 result was “inactive”.
Next, `COc1ccccc1N=C(NOCc1ccc(Cl)cc1Cl)c1nonc1N`: 8.8 µM; `O=c1c(O)c(-c2ccc(O)c(O)c2)oc2cc(O)cc(O)c12`: 3 µM; `O=C1NC(=S)N(c2ccc(Cl)cc2)C(=O)/C1=C/c1ccco1`: “inactive”.
For `O=C1C=CC(=O)c2c(O)cccc21`, the IC50 was 0.5 µM.
As for `C[C@@H]1Oc2c3c(c4c(-c5ccccc5)cc(=O)oc4c2C(=O)[C@H]1C)OC(C)(C)C=C3`, the IC50 is 3.1 µM.
Next, `O=C(N/N=C/c1ccccc1Cl)c1cc(O)c(O)c(O)c1`: “inactive”; `Cc1ccc(C)n1-c1ccc(Br)cc1C(=O)O`: 9 µM; `Cc1cccc(NCC(=O)N/N=C\c2c(Br)cc(Br)c(O)c2Br)c1`: “inactive”.
Take `O=c1c(O)c(-c2cc(O)c(O)c(O)c2)oc2cc(O)cc(O)c12`: the IC50 was 3 µM.
Consider `O=C(CSc1nc2ccccc2s1)c1sc2sc3ccccc3[n+]2c1[O-]`, for which the IC50 is 0.3 µM.
In the case of `Cc1onc(-c2ccccc2)c1C(=O)Nc1sc(C)c(C)c1C(N)=O` it was 8 µM; in that of `CN(C)CN1CSC(=S)N(CN(C)C)C1`, “inactive”.
In the case of `COC([CH2][Hg][n]1cnc2c1c(=O)n(C)c(=O)n2C)CN1C(=O)c2ccccc2S1(=O)=O` (stereo not given) it was 3.3 µM; in that of `O=[N+]([O-])c1ccc2c(N=Nc3ccc4ccccc4c3O)c(O)cc(S(=O)(=O)O)c2c1`, 0.3 µM.
In the case of `O=C(Oc1ccccc1)Oc1c(Cl)cc2oc(=O)sc2c1Cl` it was 3 µM.
Consider `C[N+](C)=c1ccc2nc3c(cc(Nc4ccccc4)c4ccccc43)oc-2c1`, for which the IC50 was 1.6 µM.
In the case of `O=C(O)C1CCCCC1c1c2ccc(=O)c(O)c-2oc2c(O)c(O)ccc12` (stereo not given) it was 0.1 µM; in that of `Cc1cccc(NC(=O)c2c(NC(=O)c3ccc([N+](=O)[O-])cc3)sc3c2CCCC3)c1`, 0.58 µM; in that of `Cc1ccc(NC(=O)c2c(NC(=O)C(F)(F)F)sc(-c3ccccc3)c2C)c(C)c1`, 7.5 µM.
Next, `CC(=O)O[C@H](C)[C@@H]1C2=C(C(=O)C[C@]1(C)O)C(=O)c1c(ccc(-c3ccc4c(c3O)C(=O)C3=C(C4=O)[C@@H]([C@@H](C)OC(C)=O)[C@@](C)(O)CC3=O)c1O)C2=O`: 6 µM.
For `Cc1ccc(S(=O)(=O)/N=C2\C=CC(=O)C=C2Cl)cc1`, the IC50 was 3.4 µM.
In the case of `O=C(N/N=C/c1ccc(/C=N/NC(=O)c2ccc(O)c(O)c2)cc1)c1ccc(O)c(O)c1` it was 0.04 µM.
In the case of `CC(C)OC(=O)c1cc(O)c(O)c(O)c1` it was > 100 µM (inactive).
For `Oc1ccc2ccccc2c1C=NCc1c(O)ccc2ccccc12`, the IC50 is 8 µM.
Next, `COc1cc(C)cc2c(-c3c(O)cc(O)c4c3C[C@@H](C)N[C@@H]4C)cc(-c3cc(-c4c(O)cc(O)c5c4C[C@@H](C)N[C@@H]5C)c4cc(C)cc(OC)c4c3O)c(O)c12`: 2 µM; `O=C1NC(=S)N(c2ccccc2F)C(=O)/C1=C/c1ccc(OCc2cccc(C(=O)O)c2)cc1`: 9 µM; `Cc1ccc(S(=O)(=O)N=C2C=C(Cl)C(=O)C(Br)=C2)cc1`: 4.7 µM.
Next, `O=C1C=C(NCCc2cc(Br)c(O)c(Br)c2)C(=O)c2ncccc21`: 6.8 µM.
On to `Cc1sc(NC(=O)C2CCCO2)c(C(N)=O)c1C` (stereo not given), for which the IC50 result was “inactive”.
In the case of `Cc1cc(-c2ccco2)c(C#N)c(SCC(=O)c2ccc(O)c(O)c2)n1` it was 1.8 µM.
In the case of `NCC[Se][Se]CCN` it was 5.3 µM; in that of `Cc1sc(NC(=O)C2CC3CCC2C3)c(C(N)=O)c1C` (stereo not given), “inactive”; in that of `CC(=O)/C=C/C=C/c1ccc2c(c1)OC(CO)C(c1ccc(O)c(O)c1)O2` (stereo not given), 6 µM.
In the case of `COC(=O)c1c(N)sc(C(=O)Nc2ccc(OC)cc2)c1C` it was “inactive”.
Take `O=C(NC(=S)Nc1cc(-c2nc3ccccc3s2)ccc1Cl)c1ccc(F)cc1`: the IC50 is 0.8 µM.
In the case of `O=[N+]([O-])c1cc(Cc2cc([N+](=O)[O-])c3cccnc3c2O)c(O)c2ncccc12`, the IC50 is 0.5 µM.
Take `COc1ccc(NC(=O)c2c(N)sc(-c3ccccc3)c2C)cc1`: the IC50 was 2 µM.
Next, `O=C1NN(c2ccc(I)cc2)C(=O)/C1=C\c1ccc(O)c(O)c1`: 8.3 µM.
Next, `CCOc1ccc(NC(=O)c2c(NC(=O)c3ccco3)sc3c2CCCCC3)cc1`: 2.1 µM; `O=[N+]([O-])c1ccc(S(=O)(=O)Cc2ccccc2)c2nonc12`: 5 µM.
In the case of `CC(C)=CCC/C(C)=C/Cc1cc(/C=C/c2cc(O)c(C/C=C(\C)CCC=C(C)C)c(O)c2)cc(O)c1O` it was 1.3 µM; in that of `COC(=O)c1cc2cc3cc4cc(CC(=O)O)c(C(=O)/C=C(\O)c5ccccc5O)c(OC)c4c(OC)c3c(O)c2c(=O)o1`, 1.2 µM.
Take `CCN1C(=O)/C(=C/c2ccoc2)C(=O)NC1=S`: the IC50 is > 100 µM (inactive).
In the case of `O=C(Nc1sc2c(c1C(=O)Nc1cccc3ccccc13)CCCCC2)c1ccccc1F` it was 4.8 µM; in that of `O=C1O/C(=C(/C(=O)O)c2ccc(O)cc2)C(O)=C1c1cc2c3c(c(O)cc(C4=C(O)/C(=C(\C(=O)O)c5ccc(O)cc5)OC4=O)c3c1)OC2=O`, 0.6 µM.
In the case of `O=C1C(Cl)=C/C(=N\S(=O)(=O)c2ccc(Cl)cc2)C(Cl)=C1Cl` it was 4.6 µM; in that of `C[C@]12Cc3cnc(-c4ccccc4)nc3C[C@@H]1CC[C@@H]1[C@@H]2CC[C@@]2(C)[C@H]1CC[C@]2(C)O`, 2.8 µM.
For the molecule `FC(F)(F)c1nc2ccc(SSc3ccc4nc(C(F)(F)F)[nH]c4c3)cc2[nH]1`, the IC50 was 1.7 µM.
Next, `COc1ccccc1NC(=O)c1c(NC(=O)Cc2ccccc2)sc2c1CCCCC2`: 0.48 µM; `Cc1ccc(C2COc3cc(O)c(O)cc3C2)cc1` (stereo not given): 4.8 µM; `COc1ccc(C2COc3cc(O)c(O)cc3C2)cc1` (stereo not given): 2.8 µM.

The record behind these values is PubChem BioAssay AID366 (MTDP, 2006).
